# Assay results taken from patent publication US5061794A, “Cephalosporin derivatives, and antibacterial agents” (priority 1986, dated 1991).
# Read-outs that look alike come from different tables or passages of the source.
# Key:
# Ps. cepacia 23 = assay: in vitro antibacterial activity, agar plate dilution method (MIC); format: cell-based, Pseudomonas cepacia; conditions: read-out: Minimum Inhibitory Concentration (MIC)
# In short: (§1)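 Agar plate dilution on Mueller Hinton agar containing graded compound levels, inoculated at 10^6 CFU/ml from overnight Mueller Hinton broth cultures. MIC (μg/ml) read after 16 h at 37°C.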
# Ps. aeruginosa AK 109 = assay: as above; format: cell-based, Pseudomonas aeruginosa; conditions: Pseudomonas aeruginosa, AK109, 16 h
# In short: as §1
# Ps. aeruginosa IF03445 = assay: as above; format: cell-based, Pseudomonas aeruginosa; conditions: Pseudomonas aeruginosa, IF03445, 16 h, read-out: Minimum Inhibitory Concentration (MIC), Ps. aeruginosa IF03445; 10^6 CFU/ml
# In short: as §1
# Ps. aeruginosa AKR17 = assay: as above; format: cell-based, Pseudomonas aeruginosa; conditions: Pseudomonas aeruginosa
# In short: as §1
# A. calcoaceticus No. 4 = assay: as above; format: cell-based, Acinetobacter calcoaceticus; conditions: Acinetobacter calcoaceticus, NO.4, 16 h, 10^6 CFU/ml
# In short: as §1
# E. cloacae Nek 39 = assay: as above; format: cell-based; conditions: Enterobacter cloacae, NEK39, 16 h, read-out: Minimum Inhibitory Concentration (MIC), *E. cloacae Nek 39, lactamase-producing strain; 10^6 CFU/ml
# In short: as §1
# S. aureus 209P NIHJ-JC1 = assay: as above; format: cell-based; conditions: Staphylococcus aureus, 16 h
# In short: as §1
# M. morganii GN5407 = assay: as above; format: cell-based; conditions: Morganella morganii, GN5407, 16 h, read-out: Minimum Inhibitory Concentration (MIC), *M. morganii GN5407, lactamase-producing strain; 10^6 CFU/ml
# In short: as §1
# S. marcescens IAM 1184 = assay: as above; format: cell-based; conditions: Serratia marcescens, IAM1184, 16 h, read-out: Minimum Inhibitory Concentration (MIC)
# In short: as §1
# E. coli NIHJ JC2 = assay: as above; format: cell-based; conditions: Escherichia coli, NIHJJC2, 16 h, read-out: Minimum Inhibitory Concentration (MIC), E. coli NIHJ JC2, 10^6 CFU/ml, 37° C.
# In short: as §1
# K. oxytoca GN10650 = assay: as above; format: cell-based; conditions: Klebsiella oxytoca, GN10650, 16 h, read-out: Minimum Inhibitory Concentration (MIC), *K. oxytoca GN10650, lactamase-producing strain; 10^6 CFU/ml
# In short: as §1
# E. cloacae 963 = assay: as above; format: cell-based; conditions: 10^6 CFU/ml
# In short: as §1
# P. vulgaris HX-19 = assay: as above; format: cell-based; conditions: Proteus vulgaris, HX19, 16 h, read-out: Minimum Inhibitory Concentration (MIC)
# In short: as §1
# P. vulgaris No. 33 = assay: as above; format: cell-based; conditions: Proteus vulgaris, NO.33, 16 h, read-out: Minimum Inhibitory Concentration (MIC), *P. vulgaris No. 33, lactamase-producing strain; 10^6 CFU/ml
# In short: as §1
# S. marcescens No. 16-2 = assay: as above; format: cell-based; conditions: Serratia marcescens, NO.162, 16 h
# In short: as §1
# K. pneumoniae No. 42 = assay: as above; format: cell-based; conditions: Klebsiella pneumoniae, NO.42, 16 h, read-out: Minimum Inhibitory Concentration (MIC), *K. pneumoniae No. 42, lactamase-producing strain; 10^6 CFU/ml
# In short: as §1
# E. coli GN5482 = assay: as above; format: cell-based; conditions: Escherichia coli, GN5482, 16 h
# In short: as §1
# K. pneumoniae PCI-602 = assay: as above; format: cell-based; conditions: Klebsiella pneumoniae, PCI602, 16 h, read-out: Minimum Inhibitory Concentration (MIC), K. pneumoniae PCI-602; 10^6 CFU/ml
# In short: as §1
# E. coli CSH(RE45) = assay: microbe, parasite or virus in culture; format: cell-based; conditions: Escherichia coli, 16 h, read-out: Minimum Inhibitory Concentration (MIC), *E. coli CSH(RE45), lactamase-producing strain; 10^6 CFU/ml
# In short: as §1
# E. coli CSH2 (RK1) = assay: microbe, parasite or virus in culture; format: cell-based; conditions: Escherichia coli, 16 h, read-out: Minimum Inhibitory Concentration (MIC), *E. coli CSH2 (RK1), lactamase-producing strain; 10^6 CFU/ml
# In short: as §1
# [1] = Burkholderia cepacia, 16 h, Ps. cepacia 23, 10^6 CFU/ml
# [2] = read-out: Minimum Inhibitory Concentration (MIC)
# [3] = 16 h, Ps. aeruginosa AKR17, 10^6 CFU/ml, read-out: Minimum Inhibitory Concentration (MIC)
# [4] = read-out: Minimum Inhibitory Concentration (MIC), A. calcoaceticus No. 4
# [5] = read-out: Minimum Inhibitory Concentration (MIC), S. aureus 209P NIHJ-JC1, 10^6 CFU/ml, 37° C., 16 hours
# [6] = S. marcescens IAM 1184, 10^6 CFU/ml
# [7] = Enterobacter cloacae, 16 h, E. cloacae 963, read-out: Minimum Inhibitory Concentration (MIC)
# [8] = read-out: Minimum Inhibitory Concentration (MIC), *S. marcescens No. 16-2, lactamase-producing strain, 10^6 CFU/ml
# [9] = read-out: Minimum Inhibitory Concentration (MIC), *E. coli GN5482, lactamase-producing strain, 10^6 CFU/ml
# [10] = read-out: Minimum Inhibitory Concentration (MIC), Ps. aeruginosa AK 109, 10^6 CFU/ml
# [11] = Enterobacter cloacae, 963, 16 h, read-out: Minimum Inhibitory Concentration (MIC), E. cloacae 963
# [12] = AKR17, 16 h, read-out: Minimum Inhibitory Concentration (MIC)
structure (smiles),measurement,setting,value
"CC(C)ON=C(C(=O)NC1C(=O)N2C(C(=O)O)=C(CSc3nc(-c4ccc(O)c(O)c4)cs3)CSC12)c1csc(N)n1 (stereo not drawn) [Ex. 41, sodium 7β-[2-(2-aminothiazol-4-yl)-2-isooropoxyiminoacetamido]-3-[4-(3,4-dihydroxyphenyl)-thiazol-2-yl]thiomethyl-3-cechem-4-carboxylate]",MIC,Ps. cepacia 23; [1],0.05 µg/mL
same,MIC,Ps. aeruginosa AK 109; [2],0.39 µg/mL
same,MIC,Ps. aeruginosa IF03445,0.78 µg/mL
same,MIC,Ps. aeruginosa AKR17; [3],50 µg/mL
same,MIC,A. calcoaceticus No. 4; [4],0.39 µg/mL
same,MIC,E. cloacae Nek 39,0.2 µg/mL
same,MIC,S. aureus 209P NIHJ-JC1; [5],1.56 µg/mL
same,MIC,M. morganii GN5407,0.05 µg/mL
same,MIC,S. marcescens IAM 1184; [6],0.05 µg/mL
same,MIC,E. coli NIHJ JC2,0.2 µg/mL
same,MIC,K. oxytoca GN10650,0.39 µg/mL
same,MIC,E. cloacae 963; [7],0.1 µg/mL
same,MIC,"P. vulgaris HX-19; P. vulgaris HX-19, 10^6 CFU/ml",0.025 µg/mL
same,MIC,P. vulgaris No. 33,0.05 µg/mL
same,MIC,S. marcescens No. 16-2; [8],6.25 µg/mL
same,MIC,K. pneumoniae No. 42,0.1 µg/mL
same,MIC,E. coli GN5482; [9],0.78 µg/mL
same,MIC,K. pneumoniae PCI-602,< 6 ng/mL
same,MIC,E. coli CSH(RE45),< 0.006 µg/mL
same,MIC,E. coli CSH2 (RK1),0.0125 µg/mL
"C=CCON=C(C(=O)NC1C(=O)N2C(C(=O)O)=C(CSc3nc(-c4ccc(O)c(O)c4)cs3)CSC12)c1csc(N)n1 (stereo not shown) [Ex. 42, sodium 78-[2-allyloxyimino-2-(2-aminothiazol-4-yl)acetamido]-3-[4-(3,4-dihydroxyphenyl)-thiazol-2-yl]thiomethyl-3-cephem-4-carboxylate]",MIC,Ps. cepacia 23; [1],0.1 µg/mL
same,MIC,Ps. aeruginosa AK 109; [10],0.78 µg/mL
same,MIC,Ps. aeruginosa IF03445,0.78 µg/mL
same,MIC,Ps. aeruginosa AKR17; [3],100 µg/mL
same,MIC,A. calcoaceticus No. 4; [4],0.39 µg/mL
same,MIC,E. cloacae Nek 39,0.39 µg/mL
same,MIC,S. aureus 209P NIHJ-JC1; [5],0.78 µg/mL
same,MIC,M. morganii GN5407,0.05 µg/mL
same,MIC,S. marcescens IAM 1184; [6],0.05 µg/mL
same,MIC,E. coli NIHJ JC2,0.2 µg/mL
same,MIC,K. oxytoca GN10650,3.12 µg/mL
same,MIC,E. cloacae 963; [11],0.05 µg/mL
same,MIC,"P. vulgaris HX-19; P. vulgaris HX-19, 10^6 CFU/ml",0.0125 µg/mL
same,MIC,P. vulgaris No. 33,0.05 µg/mL
same,MIC,S. marcescens No. 16-2; [8],6.25 µg/mL
same,MIC,K. pneumoniae No. 42,0.2 µg/mL
same,MIC,E. coli GN5482; [9],0.78 µg/mL
same,MIC,K. pneumoniae PCI-602,< 6 ng/mL
same,MIC,E. coli CSH(RE45),0.025 µg/mL
same,MIC,E. coli CSH2 (RK1),0.025 µg/mL
"Nc1nc(C(=NOCC(=O)O)C(=O)NC2C(=O)N3C(C(=O)O)=C(CSc4nc(-c5ccc(O)c(O)c5)cs4)CSC23)cs1 (stereo not drawn) [Ex. 43, disodium 7β-[2-(2-aminothiazol-4-yl)-2-carboxylatemethoxyimincacetamido]-3-[4-(3,4-dihydroxyphenyl)thiazol-2-yl]thiomethvl-3-cephem-4-carboxylate]",MIC,Ps. cepacia 23; [1],< 0.006 µg/mL
same,MIC,Ps. aeruginosa AK 109; [10],0.78 µg/mL
same,MIC,Ps. aeruginosa IF03445,0.78 µg/mL
same,MIC,Ps. aeruginosa AKR17; [12],12.5 µg/mL
same,MIC,"A. calcoaceticus No. 4; A. calcoaceticus No. 4, read-out: Minimum Inhibitory Concentration (MIC)",0.2 µg/mL
same,MIC,E. cloacae Nek 39,0.2 µg/mL
same,MIC,S. aureus 209P NIHJ-JC1; [2],12.5 µg/mL
same,MIC,M. morganii GN5407,0.05 µg/mL
same,MIC,S. marcescens IAM 1184; [6],0.05 µg/mL
same,MIC,E. coli NIHJ JC2,0.2 µg/mL
same,MIC,K. oxytoca GN10650,0.39 µg/mL
same,MIC,E. cloacae 963; [7],0.1 µg/mL
same,MIC,"P. vulgaris HX-19; P. vulgaris HX-19, 10^6 CFU/ml",< 0.006 µg/mL
same,MIC,P. vulgaris No. 33,0.05 µg/mL
same,MIC,S. marcescens No. 16-2; [8],1.56 µg/mL
same,MIC,K. pneumoniae No. 42,0.1 µg/mL
same,MIC,E. coli GN5482; [2],0.39 µg/mL
same,MIC,K. pneumoniae PCI-602,< 6 ng/mL
same,MIC,E. coli CSH(RE45),0.025 µg/mL
same,MIC,E. coli CSH2 (RK1),0.025 µg/mL
"Nc1nc(C(=NOC2(C(=O)O)CC2)C(=O)NC2C(=O)N3C(C(=O)O)=C(CSc4nc(-c5ccc(O)c(O)c5)cs4)CSC23)cs1 (stereo not drawn) [Ex. 45, disodium 7β-[2-(2-aminothiazol-4-yl)-2-(1-carboxvlate-1-cyclopropoxyimino)acetamido]-3-[4-(3,4-dihvdroxvphenyl)thiazol-2-yl]thiomethyl-3-cephem-4-carboxylate]",MIC,Ps. cepacia 23; [1],< 0.006 µg/mL
same,MIC,Ps. aeruginosa AK 109; [10],0.78 µg/mL
same,MIC,Ps. aeruginosa IF03445,0.78 µg/mL
same,MIC,"Ps. aeruginosa AKR17; AKR17, 16 h, read-out: Minimum Inhibitory Concentration (MIC), Ps. aeruginosa AKR17, 10^6 CFU/ml",6.25 µg/mL
same,MIC,A. calcoaceticus No. 4; [4],0.1 µg/mL
same,MIC,E. cloacae Nek 39,0.05 µg/mL
same,MIC,S. aureus 209P NIHJ-JC1; [5],6.25 µg/mL
same,MIC,M. morganii GN5407,0.05 µg/mL
same,MIC,S. marcescens IAM 1184; [6],0.05 µg/mL
same,MIC,E. coli NIHJ JC2,0.2 µg/mL
same,MIC,K. oxytoca GN10650,0.1 µg/mL
same,MIC,E. cloacae 963; [11],0.05 µg/mL
same,MIC,"P. vulgaris HX-19; P. vulgaris HX-19, 10^6 CFU/ml",< 0.006 µg/mL
same,MIC,P. vulgaris No. 33,0.025 µg/mL
same,MIC,S. marcescens No. 16-2; [2],0.39 µg/mL
same,MIC,K. pneumoniae No. 42,0.1 µg/mL
same,MIC,E. coli GN5482; [2],0.39 µg/mL
same,MIC,K. pneumoniae PCI-602,< 6 ng/mL
same,MIC,E. coli CSH(RE45),0.05 µg/mL
same,MIC,E. coli CSH2 (RK1),0.025 µg/mL
"CCON=C(C(=O)N[C@@H]1C(=O)N2C(C(=O)[O-])=C(CSc3nc(-c4ccc(OC(C)=O)c(OC(C)=O)c4)cs3)CS[C@H]12)c1csc(N)n1.[Na+] [Ex. 49, sodium 3-[4-(3,4-diacetoxyphenyl)-thiazol-2-yl]thiomethyl-7β-[2-(2-aminothiazol-4-yl)-2-ethoxyiminoacetamido]-3-cephem-4-carboxylate]",MIC,"Ps. cepacia 23; Burkholderia cepacia, 23, 16 h",0.05 µg/mL
same,MIC,Ps. aeruginosa AK 109; [10],0.78 µg/mL
same,MIC,Ps. aeruginosa IF03445,0.78 µg/mL
same,MIC,Ps. aeruginosa AKR17; [12],100 µg/mL
same,MIC,A. calcoaceticus No. 4; [4],0.39 µg/mL
same,MIC,E. cloacae Nek 39,0.78 µg/mL
same,MIC,S. aureus 209P NIHJ-JC1; [5],1.56 µg/mL
same,MIC,M. morganii GN5407,0.1 µg/mL
same,MIC,S. marcescens IAM 1184,0.1 µg/mL
same,MIC,E. coli NIHJ JC2,0.39 µg/mL
same,MIC,K. oxytoca GN10650,6.25 µg/mL
same,MIC,E. cloacae 963; [11],0.1 µg/mL
same,MIC,P. vulgaris HX-19,0.0125 µg/mL
same,MIC,P. vulgaris No. 33,0.05 µg/mL
same,MIC,S. marcescens No. 16-2; [2],3.12 µg/mL
same,MIC,K. pneumoniae No. 42,0.05 µg/mL
same,MIC,E. coli GN5482; [9],1.56 µg/mL
same,MIC,K. pneumoniae PCI-602,< 6 ng/mL
same,MIC,E. coli CSH(RE45),0.05 µg/mL
same,MIC,E. coli CSH2 (RK1),0.025 µg/mL
